Read-outs that look alike come from different tables or passages of the source.
How the values were obtained:
P. infestans [1] = format: cell-based, Phytophthora infestans; design: unit not given beside the values
P. infestans [2] = format: in vivo, Phytophthora infestans; design: ED90: unit not given beside the values
Pythium aphanidermatum = Pythium aphanidermatum mycelial growth in vitro; format: cell-based; conditions: recommended dosage of 0.07% of active ingredient; 24 hr, 25° C.; FIG. 6
P. aphanidermatum = test: Pythium damping-off disease in cucumber seedlings; format: in vivo, Pythium aphanidermatum; conditions: drench at 0.07% of active ingredient, after 10 days, FIG. 7
P. infestans [3] = format: in vivo, Phytophthora infestans; design: unit not given beside the values; conditions: TOMATO; Table 2
P. infestans [4] = format: in vivo, Phytophthora infestans; design: unit not given beside the values; conditions: POTATO; Table 2

OP(O)O [H3PO3, Phosphorous Acid]
ED90 (P. infestans [1]): 45 | Inhibition (% of control) (P. infestans [2]; Tomato, 0.01% active ingredient, Table 4): 13 % of control | Inhibition (% of control) (P. infestans [2]; Tomato, 0.02% active ingredient, Table 4): 13 % of control | Inhibition (% of control) (P. infestans [2]; Tomato, 0.05% active ingredient, Table 4): 19 % of control | Inhibition (% of control) (P. infestans [2]; Tomato, 0.1% active ingredient, Table 4): 31 % of control | ED90 (P. infestans [2]; in vivo): 2.52

CCO[PH](=O)O [Fosetyl-Al]
inhibition of radial growth in vitro (Pythium aphanidermatum): 50% | plants survived in Pythium-inoculated flats (P. aphanidermatum): 70-80%

Potassium Phosphite [K3PO3]
ED90 (P. infestans [1]; tomato leaf discs, Table 1): 130 | ED90 (P. infestans [3]): 1.10 | ED90 (P. infestans [4]): 0.52 | Inhibition (% of control) (P. infestans [2]; Tomato, 0.12% active ingredient, Table 3): 50 % of control | Inhibition (% of control) (P. infestans [2]; Tomato, 0.25% active ingredient, Table 3): 63 % of control | Inhibition (% of control) (P. infestans [2]; Tomato, 0.5% active ingredient, Table 3): 86 % of control | Inhibition (% of control) (P. infestans [2]; Tomato, 1.0% active ingredient, Table 3): 98 % of control | ED90 (P. infestans [2]; Tomato, Table 3): 0.55

From patent publication US6689392B2, “Methods and compositions for controlling plant pathogen” (Agricare Ltd., priority 2001, dated 2004)
